Measurements reported in patent US20060094749A1, “Substituted pyridoxines as anti-platelet agents” (Medicure International Inc., priority 2004, published 2006).

Assays:
Format in all cases: cell-based
[1] = system: platelets (platelet rich plasma); assay: Inhibition of platelet aggregation, collagen as agonist; conditions: human PRP; for inhibition at 500 µM: compound 500 μM; for inhibition at 250 µM: compound 250 μM; for inhibition at 100 µM: compound 100 μM; for inhibition at 50 µM: compound 50 μM
Method: (§1) Platelet rich plasma (PRP) was obtained by drawing whole blood from normal human donors (not on any medication) into sodium citrate tubes (3.2%), and centrifuging at 160 xg for about 10 minutes. Platelet poor plasma (PPP) was obtained by centrifuging the remainder of the sample after the platelets were removed at 800 xg for about 10 minutes. The PRP was adjusted to a count of 280×10^9/L using a mixture of PRP and PPP. The platelets (200 μL) were incubated with the test compounds (25 μL) adjusted to various concentrations (50, 100, 250, and 500 μM) for about 30 minutes at room temperature (approximate final platelet count in the incubation mixture of 250×10^9/L). The samples were incubated for about 3 minutes at about 37° C., and then transferred to the mixing wells of a Chrono-log 4 channel aggregometer (Chrono-log Corp., Havertown, Pa.). After baselines were established, the agonist (25 μL of 40 μM ADP (Sigma, St. Louis, Mo.) or 25 μL of 50 μg/mL and 10 μg/mL collagen (Helena Laboratories, Beaumont, Tex.) or 25 μL of 120 μM thrombin receptor activating peptide (TRAP) (Sigma)) was then added. Aggregation was monitored for 5 minutes at 37° C. with stirring (1000 rpm). The amplitude and slope of each tracing were calculated to determine the amount of aggregation. Control samples were performed using only solvent. The % reduction in aggregation was calculated for each sample compared to the proper solvent control.

[2] = system: platelets (platelet rich plasma); assay: Inhibition of platelet aggregation, ADP as agonist; conditions: ADP 4 μM, human PRP, read-out: % Reduction in Aggregation, ADP (4 μM); for inhibition at 500 µM: compound 500 μM; for inhibition at 250 µM: compound 250 μM; for inhibition at 100 µM: compound 100 μM
Method: as §1

[3] = system: platelets (platelet rich plasma); assay: Inhibition of platelet aggregation, thrombin receptor activating peptide (TRAP) as agonist; conditions: TRAP 12 μM, human PRP, read-out: % Reduction in Aggregation, TRAP (12 μM); for inhibition at 500 µM: compound 500 μM; for inhibition at 250 µM: compound 250 μM; for inhibition at 100 µM: compound 100 μM
Method: as §1

[4] = collagen 1 μg/mL, read-out: % Reduction in Aggregation, Collagen (1 μg/mL)
[5] = collagen 5 μg/mL, read-out: % Reduction in Aggregation, Collagen (5 μg/mL)

SMILES	inhibition at 500 µM [1, 4] [%]	inhibition at 500 µM [1, 5] [%]	inhibition at 500 µM [2] [%]	inhibition at 500 µM [3] [%]	inhibition at 250 µM [1, 4] [%]	inhibition at 250 µM [1, 5] [%]	inhibition at 250 µM [2] [%]	inhibition at 250 µM [3] [%]	further results
Cc1ncc(CNC(=O)c2cccc(C(=N)N)c2)c(CO)c1O [Compound 2, 3-Carbamimidoyl-N-(5-hydroxy-4-hydroxymethyl-6-methyl-pyridin-3-ylmethyl)-benzamide]	3	12	10	6					
Cc1ncc(CNC(=O)c2ccc(C(=N)N)cc2)c(CO)c1O [Compound 5, 4-Carbamimidoyl-N-(5-hydroxyl-4-hydroxymethyl-6-methyl-pyridin-3-ylmethyl)-benzamide]	91	27	71	84					
Cc1ncc(CNCc2ccc(C(=N)N)cc2)c(CO)c1O [Compound 7, 4-{[(5-Hydroxyl-4-hydroxymethyl-6-methyl-pyridin-3-ylmethyl)-amino]-methyl}-benzamidine]	2	8	26	34					
Cc1ncc(CNCc2cccc(C(=N)N)c2)c(CO)c1O [Compound 9, 3-{[(5-Hydroxy-4-hydroxymethyl-6-methyl-pyridin-3-ylmethyl)-amino]-methyl]-benzamidine]	0	10	2	0					
Cc1ncc(CNc2cccc(C(=N)N)c2)c(CO)c1O [Compound 14, 3-[(5-Hydroxy-4-hydroxymethyl-6-methyl-pyridin-3-ylmethyl)-amino]-benzamidine]	0	3	16	8					
Cc1ncc(CNC(=O)c2ccc(-c3ccc([N+](=O)[O-])nc3)cc2)c(CO)c1O [Compound 18, N-(5-Hydroxy-4-hydroxymethyl-6-methyl-pyridin-3-ylmethyl)-4-(6-nitro-pyridin-3-yl)-benzamide]					6	7	10	30	
Cc1ncc(CNC(=O)c2ccc(-c3ccc(C(=N)N)cc3)cc2)c(CO)c1O [Compound 20, 4′-Carbamimidoyl-biphenyl-4-carboxylic (5-hydroxyl-4-hydroxymethyl-6-methyl-pyridin-3-ylmethyl)-amide]					94	64	93	95	
COc1c(C)ncc(CNC(=O)c2ccc(-c3ccc(C(=N)N)cc3)cc2)c1CO [Compound 23, 4′-Carbamimidoyl-biphenyl-4-carboxylic acid (4-hydroxymethyl-5-methoxy-6-methyl-pyridin-3-ylmethyl)-amide]					19	17	39	27	
Cc1ncc(CNC(=O)c2ccc(-c3ccc(C(=N)N)cc3)cc2)c(C(=O)O)c1O [Compound 26, 5-{[(4′-Carbamimidoyl-biphenyl-4-carbonyl)-amino]-methyl}-3-hydroxy-2-methyl-isonicotinic acid]									inhibition at 100 µM [1, 4]: 52%; inhibition at 100 µM [1, 5]: 18%; inhibition at 100 µM [2]: 62%; inhibition at 100 µM [3]: 17%
COC(=O)c1c(CNC(=O)c2ccc(-c3ccc(C(=N)N)cc3)cc2)cnc(C)c1OC [Compound 28, 5-{[(4′-Carbamimidoyl-biphenyl-4-carbonyl)-amino]-methyl}-3-methoxy-2-methyl-isonicotinic acid methyl ester]					17	24	46	10	
Cc1ncc(CNc2ccc(-c3ccc(C(=N)N)cc3)cn2)c(CO)c1O [Compound 31, 4-{6-[(5-Hydroxy-4-hydroxymethyl-6-methyl-pyridin-3-ylmethyl)-amino]-pyridin-3-yl}-benzamidine]					74	28	79	64	
Cc1ncc(CNc2ccc(-c3ccc(C(=N)N)cc3)cc2OC(F)(F)F)c(CO)c1O [Compound 35]					86	12	84	35	
Cc1ncc(CNc2ccc(-c3ccc(C(=N)N)cc3)cc2C(F)(F)F)c(CO)c1O [Compound 37, 4′-[(5-Hydroxy-4-hydroxymethyl-6-methyl-pyridin-3-ylmethyl)-amino]-3′-trifluoromethyl-biphenyl-4-carboxamidine]					19	6	43	17	
Cc1ncc(CO)c(CNc2ccc(C(=N)N)cc2)c1O [Compound 39, 4-[(3-Hydroxy-5-hydroxymethyl-2-methyl-pyridin-4-ylmethyl)-amino]-benzamidine]									inhibition at 100 µM [1, 4]: 1%; inhibition at 100 µM [1, 5]: 8%; inhibition at 100 µM [2]: 3%; inhibition at 100 µM [3]: 5%
Cc1ncc(CNc2ccc(-c3ccc(C(=N)N)cc3)cc2)c(C)c1O [Compound 43, 4′-[(5-Hydroxy-4,6-dimethyl-pyridin-3-ylmethyl)-amino]-biphenyl-4-carboxamidine]					100	0	87	69	
Cc1ncc(CN(Cc2ccc(C(=N)N)cc2)c2ccc(C(=N)N)cc2)c(CO)c1O [Compound 52, 4-(N-(4-Carbamimidoyl-benzyl)-N-((5-hydroxy-4-(hydroxymethyl)-6-methylpyridin-3-yl)methyl)amino)benzamidine]									inhibition at 50 µM [1, 4]: 93%; inhibition at 50 µM [1, 5]: 7%; inhibition at 50 µM ([2]; compound 50 μM): 95%; inhibition at 50 µM ([3]; compound 50 μM): 95%
Cc1ncc(CCNCc2ccc(C(=N)N)cc2)c(CO)c1O [Compound 55, 4-{[2-(5-Hydroxy-4-hydroxymethyl-6-methyl-pyridin-3-yl)-ethylamino]-methyl}-benzamidine]	24	20	38	75					
Cc1ncc(CCNCc2cccc(C(=N)N)c2)c(CO)c1O [Compound 57, 3-{[2-(5-Hydroxy-4-hydroxymethyl-6-methyl-pyridin-3-yl)ethylamino]methyl}-benzamidine]	6	0	0	14					
Cc1ncc(CCNC(=O)c2ccc(C(=N)N)cc2)c(CO)c1O [Compound 59, 4-Carbamimidoyl-N-[2-(5-hydroxy-4-hydroxymethyl-6-methyl-pyridin-3-yl)-ethyl]-benzamide]	28	11	55	67					
Cc1ncc(CCNC(=O)c2cccc(C(=N)N)c2)c(CO)c1O [Compound 61, 3-Carbamimidoyl-N-[2-(5-hydroxy-4-hydroxymethyl-6-methyl-pyridin-3-yl)-ethyl]-benzamide]	0	10	2	0					
